Tests used:
[1] = Tabletting in a cam press: formation of form B under mechanical pressure, estimated by X-ray powder diffraction; assay type: physicochemical
Experimental: The pressures here are preferably those which usually prevail during tablet production if ram forces of between about 2 and 16 kN, in particular between 6 and 16 kN, are used as the maximum pressing forces.
In an EK0 cam press from Korsch (Berlin, Germany), year of construction 2002, tablets are produced at a rate of 50 units per minute using a 7 mm, round, flat ram with bevel.
The tablets contain 50 mg of EMD281014 in crystal form A, 93.2 mg of lactose monohydrate, 4.5 mg of croscarmellose and 2.3 mg of magnesium stearate. The ingredients are dry-mixed and compressed directly.
The proportion of form B is estimated by comparison of the X-ray powder diffraction patterns of the mixtures (FIGS. 3 and 4) with the diffraction patterns of the pure forms (FIGS. 1 and 2).

[2] = Stirring a suspension of form A in MTBE, form B estimated by X-ray powder diffraction; assay type: physicochemical
[3] = Storage of form B at elevated temperature, conversion into form A; assay type: physicochemical; settings: storage at 105° C. for 24 hours
Experimental: Furthermore, a very simple method for the preparation of form A from form B has been found. To this end, form B merely needs to be stored at elevated temperatures of between about 75 and about 225° C., preferably 90 and 160° C. and particularly preferably between 110 and 140° C. Depending on the temperature and the storage duration, different degrees of conversion can be achieved. Depending on the target degree of conversion, the storage duration at a given temperature can be between a few minutes and several days. In order to achieve high degrees of conversion, […] is preferably stored for from several hours to days. Suitable storage times are, for example, 4, 8, 12, 16, 20, 24, 36 or 48 hours.

5-HT2A receptor [4] = molecular target: T1, 5-HT2A receptor (Homo sapiens, UniProt P28223); settings: background statement, no values; cited from earlier work
T1 sequence (P28223 whole entry): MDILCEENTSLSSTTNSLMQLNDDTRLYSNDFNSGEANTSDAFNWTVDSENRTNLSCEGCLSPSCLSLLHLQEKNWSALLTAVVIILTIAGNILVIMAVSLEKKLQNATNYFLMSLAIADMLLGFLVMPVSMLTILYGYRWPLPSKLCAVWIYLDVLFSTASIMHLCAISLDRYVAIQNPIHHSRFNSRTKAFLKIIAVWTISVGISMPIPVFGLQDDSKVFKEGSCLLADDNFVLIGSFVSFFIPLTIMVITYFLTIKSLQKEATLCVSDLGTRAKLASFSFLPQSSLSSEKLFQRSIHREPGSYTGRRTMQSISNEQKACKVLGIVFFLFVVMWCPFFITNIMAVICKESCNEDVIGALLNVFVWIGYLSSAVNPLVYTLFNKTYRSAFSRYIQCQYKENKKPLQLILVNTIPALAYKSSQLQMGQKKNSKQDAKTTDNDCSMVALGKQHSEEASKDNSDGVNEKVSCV

5-HT2A receptor [5] = molecular target: T1, 5-HT2A receptor; settings: background statement, no values; cited from earlier work; remark: listed apart in the source
[6] = cam press, contact time 310 ms, maximum pressing force 16 kN

Cl.N#Cc1c[nH]c2c(C(=O)N3CCN(CCc4ccc(F)cc4)CC3)cccc12 [EMD281014 form A, 7-{4-[2-(4-fluorophenyl)ethyl]-piperazine-1-carbonyl}-1H-indole-3-carbonitrile, hydrochloride]
proportion of form B ([1]; cam press, contact time 250 ms, maximum pressing force 6 kN): about 20% | proportion of form A in the mixture obtained [1, 6]: ~75% | proportion of form B in the mixture obtained [1, 6]: about 25% | proportion of form B ([2]; 250 mg in 5 ml MTBE, stirred 14 days at room temperature): about 30 % by weight | form B obtained in addition to form A ([2]; suspension in MTBE, room temperature, 14 days): about 30%

Cl.N#Cc1c[nH]c2c(C(=O)N3CCN(CCc4ccc(F)cc4)CC3)cccc12 [EMD281014 form B, (3-cyano-1H-indol-7-yl)-[4-(4-fluorophenethyl)piperazin-1-yl]methanone, hydrochloride]
stability under the tablet production conditions ([1]; X-ray diffraction patterns of tablets produced from form B, no form A or further polymorphic forms unambiguously identified): stable | conversion of B into A [3]: complete conversion

Cl.N#Cc1c[nH]c2c(C(=O)N3CCN(CCc4ccc(F)cc4)CC3)cccc12 [EMD281014, (3-cyano-1H-indol-7-yl)-[4-(4-fluorophenethyl)piperazin-1-yl]methanone, hydrochloride]
affinity to 5-HT2A receptors (5-HT2A receptor [4]): strong affinity | 5-HT2A receptor-antagonistic properties (5-HT2A receptor [5]): 5-HT2A receptor-antagonistic properties
